Measured values reported in patent US11897851B2, “Heterocyclic GLP-1 agonists” (Gasherbrum Bio, Inc., priority 2021, dated 2024).

molecular target: T1, GLP-1 Receptor (Homo sapiens, UniProt P43220); test: GLP-1R agonist cAMP stimulation assay (HEK293/GLP1R/CRE-LUC cells, Cisbio cAMP dynamic 2 kit); assay type: cell-based; details: HEK293/CRE-Luc cell line stably expressing the GLP-1 Receptor; 1000 cells/well; 30 min at 37° C.; 0.5 mM IBMX, 0.1% BSA; read-out: GLP1R cAMP Stimulation DR: EC50;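 further: compounds tested in half-log serial dilution, cAMP detected with cAMP-d2 and anti-cAMP cryptate antibody reagents after 1 h at room temperature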
T1 construct: host or cells: HEK293/GLP1R/CRE-LUC (HEK293/CRE-Luc stably expressing the GLP-1 receptor)
T1 sequence (P43220 24-463, species assumed): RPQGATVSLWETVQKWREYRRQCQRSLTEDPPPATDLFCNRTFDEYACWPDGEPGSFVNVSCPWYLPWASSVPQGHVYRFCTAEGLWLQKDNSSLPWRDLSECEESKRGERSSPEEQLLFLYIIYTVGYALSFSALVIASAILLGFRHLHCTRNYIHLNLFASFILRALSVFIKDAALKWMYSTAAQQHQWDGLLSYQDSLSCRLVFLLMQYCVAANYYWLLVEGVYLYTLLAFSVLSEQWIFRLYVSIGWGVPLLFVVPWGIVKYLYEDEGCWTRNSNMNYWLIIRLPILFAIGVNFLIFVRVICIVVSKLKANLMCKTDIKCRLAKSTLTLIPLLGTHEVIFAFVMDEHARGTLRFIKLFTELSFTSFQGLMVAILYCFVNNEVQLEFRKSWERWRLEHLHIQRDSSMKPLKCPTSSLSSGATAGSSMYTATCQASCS

| SMILES | EC50 [nM] |
| --- | --- |
| C[C@]1(c2ccc(Cl)cc2F)Oc2cccc(C3CCN(Cc4ncc(-c5nnc(C(F)(F)F)[nH]5)cc4C4CCOC4)CC3)c2O1 (stereo partly drawn) [Compound 282, 2-({4-[(2S)-2-(4-chloro-2-fluorophenyl)-2-methyl-2H-1,3-benzodioxol-4-yl]piperidin-1-yl}methyl)-3-(oxolan-3-yl)-5-[5-(trifluoromethyl)-4H-1,2,4-triazol-3-yl]pyridine] | 3.7 |
| CC1(c2ccc(Cl)cc2F)Oc2cccc(C3CCN(Cc4ncc(/C=C/C(=O)O)n4Cc4ccno4)CC3)c2O1 (centres unmarked) [Compound 181, (E)-3-(2-((4-(2-(4-chloro-2-fluorophenyl)-2-methylbenzo[d][1,3]dioxol-4-yl)piperidin-1-yl)methyl)-1-(isoxazol-5-ylmethyl)-1H-imidazol-5-yl)acrylic acid] | 4.1 |
| Cn1c(C2CC2C(=O)O)cnc1CN1CCC(c2cccc(OCc3ccc(Cl)cc3F)n2)CC1 (centres unmarked) [Compound 108, 2-(2-((4-(6-((4-chloro-2-fluorobenzyl)oxy)pyridin-2-yl)piperidin-1-yl)methyl)-1-methyl-1H-imidazol-5-yl)cyclopropanecarboxylic acid] | 28.2 |
| O=C(O)CCc1cnc(CN2CCC(c3cccc(OCc4ccc(Cl)cc4F)n3)CC2)n1CC1CCC1 [Compound 107] | 4.4 |
| COCCn1c(CN2CCC(c3cccc(OCc4ccc(Cl)cc4F)n3)CC2)nnc1C(C)=CC(=O)O [Compound 235, 3-(5-((4-(6-((4-chloro-2-fluorobenzyl)oxy)pyridin-2-yl)piperidin-1-yl)methyl)-4-(2-methoxyethyl)-4H-1,2,4-triazol-3-yl)but-2-enoic acid] | 10 |
| O=c1[nH]c(-c2cnc(CN3CCC(c4cccc(OCc5ccc(Cl)cc5F)n4)CC3)n2C[C@@H]2CCO2)no1 [Compound 249a, (S)-3-(2-((4-(6-((4-chloro-2-fluorobenzyl)oxy)pyridin-2-yl)piperidin-1-yl)methyl)-1-(oxetan-2-ylmethyl)-1H-imidazol-5-yl)-1,2,4-oxadiazol-5(4H)-one] | 3.7 |
| C[C@H](c1ccccc1)n1c(/C=C/C(=O)O)cnc1CN1CCC(c2cccc3c2OC(C)(c2ccc(Cl)cc2F)O3)CC1 (stereo partly drawn) [Compound 153, (E)-3-(2-((4-(2-(4-chloro-2-fluorophenyl)-2-methylbenzo[d][1,3]dioxol-4-yl)piperidin-1-yl)methyl)-1-((R)-1-phenylethyl)-1H-imidazol-5-yl)acrylic acid] | 18 |
| CC1(c2ccc(Cl)cc2F)Oc2cccc(C3CCN(Cc4ncc(/C=C/C(=O)O)n4CC4CN(S(C)(=O)=O)C4)CC3)c2O1 (centres unmarked) [Compound 174, (E)-3-(2-((4-(2-(4-chloro-2-fluorophenyl)-2-methylbenzo[d][1,3]dioxol-4-yl)piperidin-1-yl)methyl)-1-((1-(methylsulfonyl)azetidin-3-yl)methyl)-1H-imidazol-5-yl)acrylic acid] | 6.4 |
| CC1(c2ccc(Cl)cc2F)Oc2cccc(C3CCN(Cc4ncc(/C=C/C(=O)O)n4C4CC(O)C4)CC3)c2O1 (centres unmarked) [Compound 178, (E)-3-(2-((4-(2-(4-chloro-2-fluorophenyl)-2-methylbenzo[d][1,3]dioxol-4-yl)piperidin-1-yl)methyl)-1-(3-hydroxycyclobutyl)-1H-imidazol-5-yl)acrylic acid] | 1.2 |
| C/C(=C\c1nnc(CN2CCC(c3cccc(OCc4ccc(Cl)cc4F)n3)CC2)n1C[C@@H]1CCO1)C(=O)O [Compound 226a, (S,E)-3-(5-((4-(6-((4-chloro-2-fluorobenzyl)oxy)pyridin-2-yl)piperidin-1-yl)methyl)-4-(oxetan-2-ylmethyl)-4H-1,2,4-triazol-3-yl)-2-methylacrylic acid] | 1.2 |
| Cc1cc(-c2nnn[nH]2)cnc1CN1CCC(c2cccc3c2OC(C)(c2ccc(Cl)cc2F)O3)CC1 (centres unmarked) [Compound 253, 2-({4-[2-(4-chloro-2-fluorophenyl)-2-methyl-2H-1,3-benzodioxol-4-yl]piperidin-1-yl}methyl)-3-methyl-5-(1H-1,2,3,4-tetrazol-5-yl)pyridine] | 4 |
| O=C(O)/C(F)=C/c1cnc(CN2CCC(c3cccc(OCc4ccc(Cl)cc4F)n3)CC2)n1C[C@@H]1CCO1 [Compound 215a, (S,Z)-3-(2-((4-(6-((4-chloro-2-fluorobenzyl)oxy)pyridin-2-yl)piperidin-1-yl)methyl)-1-(oxetan-2-ylmethyl)-1H-imidazol-5-yl)-2-fluoroacrylic acid] | 55 |

These reach a lower EC50. Values come first.

| EC50 [nM] | SMILES |
| --- | --- |
| 0.88 | O=C(O)/C=C/c1nnc(CN2CCC(c3cccc(OCc4ccc(Cl)cc4F)n3)CC2)n1CC1CCCO1 (centres unmarked) [Compound 231, (E)-3-(5-((4-(6-((4-chloro-2-fluorobenzyl)oxy)pyridin-2-yl)piperidin-1-yl)methyl)-4-((tetrahydrofuran-2-yl)methyl)-4H-1,2,4-triazol-3-yl)acrylic acid] |
| 0.87 | COc1cccc(Cn2c(CCC(=O)O)cnc2CN2CCC(c3cccc4c3OC(C)(c3ccc(Cl)cc3F)O4)CC2)c1 (centres unmarked) [Compound 243, 3-(2-((4-(2-(4-chloro-2-fluorophenyl)-2-methylbenzo[d][1,3]dioxol-4-yl)piperidin-1-yl)methyl)-1-(3-methoxybenzyl)-1H-imidazol-5-yl)propanoic acid] |
| 0.53 | C[C@@H](c1ccccc1)n1c(/C=C/C(=O)O)cnc1CN1CCC(c2cccc3c2OC(C)(c2ccc(Cl)cc2F)O3)CC1 (stereo partly drawn) [Compound 152, (E)-3-(2-((4-(2-(4-chloro-2-fluorophenyl)-2-methylbenzo[d][1,3]dioxol-4-yl)piperidin-1-yl)methyl)-1-((S)-1-phenylethyl)-1H-imidazol-5-yl)acrylic acid] |
| 0.43 | CC1(c2ccc(Cl)cc2F)Oc2cccc(C3CCN(Cc4ncc(CCC(=O)O)n4CCOC(F)F)CC3)c2O1 (centres unmarked) [Compound 238, 3-(2-((4-(2-(4-chloro-2-fluorophenyl)-2-methylbenzo[d][1,3]dioxol-4-yl)piperidin-1-yl)methyl)-1-(2-(difluoromethoxy)ethyl)-1H-imidazol-5-yl)propanoic acid] |
| 0.18 | CC1(c2ccc(Cl)cc2F)Oc2cccc(C3CCN(Cc4ncc(/C=C/C(=O)O)n4CCS(C)(=O)=O)CC3)c2O1 (centres unmarked) [Compound 161, (E)-3-(2-((4-(2-(4-chloro-2-fluorophenyl)-2-methylbenzo[d][1,3]dioxol-4-yl)piperidin-1-yl)methyl)-1-(2-(methylsulfonyl)ethyl)-1H-imidazol-5-yl)acrylic acid] |
| 0.11 | CCn1cncc1Cn1c(/C=C(\C)C(=O)O)cnc1CN1CCC(c2cccc(OCc3ccc(Cl)cn3)n2)CC1 [Compound 220, (E)-3-(2-((4-(6-((5-chloropyridin-2-yl)methoxy)pyridin-2-yl)piperidin-1-yl)methyl)-1-((1-ethyl-1H-imidazol-5-yl)methyl)-1H-imidazol-5-yl)-2-methylacrylic acid] |
| 0.11 | CC#CCn1c(/C=C/C(=O)O)cnc1CN1CCC(c2cccc3c2OC(C)(c2ccc(Cl)cc2F)O3)CC1 (centres unmarked) [Compound 193, (E)-3-(1-(but-2-yn-1-yl)-2-((4-(2-(4-chloro-2-fluorophenyl)-2-methylbenzo[d][1,3]dioxol-4-yl)piperidin-1-yl)methyl)-1H-imidazol-5-yl)acrylic acid] |
| 0.09 | CC1(c2ccc(Cl)cc2F)Oc2cccc(C3CCN(Cc4ncc(/C=C/C(=O)O)n4C[C@@H]4CCCO4)CC3)c2O1 (stereo partly drawn) [Compound 140a, (E)-3-(2-((4-(2-(4-chloro-2-fluorophenyl)-2-methylbenzo[d][1,3]dioxol-4-yl)piperidin-1-yl)methyl)-1-(((S)-tetrahydrofuran-2-yl)methyl)-1H-imidazol-5-yl)acrylic acid] |
| 0.058 | CN(CCn1c(/C=C/C(=O)O)cnc1CN1CCC(c2cccc3c2OC(C)(c2ccc(Cl)cc2F)O3)CC1)S(C)(=O)=O (centres unmarked) [Compound 176, (E)-3-(2-((4-(2-(4-chloro-2-fluorophenyl)-2-methylbenzo[d][1,3]dioxol-4-yl)piperidin-1-yl)methyl)-1-(2-(N-methylmethylsulfonamido)ethyl)-1H-imidazol-5-yl)acrylic acid] |
| 0.036 | CC1(c2ccc(Cl)cc2F)Oc2cccc(N3CCN(Cc4ncc(/C=C/C(=O)O)n4C[C@@H]4CCO4)CC3)c2O1 (stereo partly drawn) [Compound 179, (E)-3-(2-((4-(2-(4-chloro-2-fluorophenyl)-2-methylbenzo[d][1,3]dioxol-4-yl)piperazin-1-yl)methyl)-1-(((S)-oxetan-2-yl)methyl)-1H-imidazol-5-yl)acrylic acid] |
| 0.023 | C[C@]1(c2ccc(Cl)cn2)Oc2cccc(C3CCN(Cc4ncc(-c5nnc(C(F)(F)F)[nH]5)cc4CC4(C#N)CC4)CC3)c2O1 [Compound 277, 1-{[2-({4-[(2S)-2-(5-chloropyridin-2-yl)-2-methyl-2H-1,3-benzodioxol-4-yl]piperidin-1-yl}methyl)-5-[5-(trifluoromethyl)-4H-1,2,4-triazol-3-yl]pyridin-3-yl]methyl}cyclopropane-1-carbonitrile] |
| 0.012 | Cc1ncoc1Cn1c(/C=C/C(=O)O)cnc1CN1CCC(c2cccc3c2OC(C)(c2ccc(Cl)cc2F)O3)CC1 (centres unmarked) [Compound 190, (E)-3-(2-((4-(2-(4-chloro-2-fluorophenyl)-2-methylbenzo[d][1,3]dioxol-4-yl)piperidin-1-yl)methyl)-1-((4-methyloxazol-5-yl)methyl)-1H-imidazol-5-yl)acrylic acid] |
| 0.0034 | CCn1cncc1Cn1c(/C=C(\C)C(=O)O)cnc1CN1CCC(c2cccc3c2OC(C)(c2ccc(Cl)cc2F)O3)CC1 (centres unmarked) [Compound 138, (E)-3-(2-((4-(2-(4-chloro-2-fluorophenyl)-2-methylbenzo[d][1,3]dioxol-4-yl)piperidin-1-yl)methyl)-1-((1-ethyl-1H-imidazol-5-yl)methyl)-1H-imidazol-5-yl)-2-methylacrylic acid] |
| 0.0032 | CCn1cncc1Cn1c(/C=C/C(=O)O)cnc1CN1CCC(c2cccc(OCc3ccc(Cl)cc3F)n2)CC1 [Compound 214, (E)-3-(2-((4-(6-((4-chloro-2-fluorobenzyl)oxy)pyridin-2-yl)piperidin-1-yl)methyl)-1-((1-ethyl-1H-imidazol-5-yl)methyl)-1H-imidazol-5-yl)acrylic acid] |
